Literature values as cited in patent US11723873B2, “Oral dosage form of ticagrelor and preparation method thereof” (Elite Pharmaceutical Solution Inc., priority 2021, dated 2023).

What was measured:
[1] = room temperature, crystalline powder
[2] = in vivo

Row | SMILES | aqueous solubility [1] | Tmax range of formation of the major circulating metabolite [2] | median time (Tmax) of formation of the major circulating metabolite [2]
1 | CCCSc1nc(N[C@@H]2C[C@H]2c2ccc(F)c(F)c2)c2nnn([C@@H]3C[C@H](OCCO)[C@@H](O)[C@H]3O)c2n1 [ticagrelor, (1S,2S,3R,5S)-3-[7-{[(1R,2S)-2-(3,4-difluorophenyl)cyclopropyl]amino}-5-(propylthio)-3H-[1,2,3]-triazolo[4,5-d]pyrimidin-3-yl]-5-(2-hydroxyethoxy)cyclopentane-1,2-diol] | approximately 10 μg/mL |  | 
2 | CCCSc1nc(N[C@@H]2C[C@H]2c2ccc(F)c(F)c2)c2nnn([C@@H]3C[C@H](O)[C@@H](O)[C@H]3O)c2n1 [AR-C124910XX] |  | 1.5 to 5.0 h | approximately 2.5 hours
